# From patent publication US20240277698A1, “METHODS OF USING ALDOSTERONE SYNTHASE INHIBITORS” (CINCOR PHARMA, INC., priority 2021, published 2024)
# Where two headings read alike, the source gives them in different places.
# Columns and labels:
# CYP11B1 = target: T1, CYP11B1 (Homo sapiens, UniProt P15538); assay: SAD study: plasma cortisol, 11-deoxycortisol and 11-DOC after Cortrosyn challenge; assay type: in vivo
# T1 construct: endogenous in cells; host or cells: adrenal cortex of healthy human subjects (in vivo, oral dosing)
# T1 sequence (P15538 25-503): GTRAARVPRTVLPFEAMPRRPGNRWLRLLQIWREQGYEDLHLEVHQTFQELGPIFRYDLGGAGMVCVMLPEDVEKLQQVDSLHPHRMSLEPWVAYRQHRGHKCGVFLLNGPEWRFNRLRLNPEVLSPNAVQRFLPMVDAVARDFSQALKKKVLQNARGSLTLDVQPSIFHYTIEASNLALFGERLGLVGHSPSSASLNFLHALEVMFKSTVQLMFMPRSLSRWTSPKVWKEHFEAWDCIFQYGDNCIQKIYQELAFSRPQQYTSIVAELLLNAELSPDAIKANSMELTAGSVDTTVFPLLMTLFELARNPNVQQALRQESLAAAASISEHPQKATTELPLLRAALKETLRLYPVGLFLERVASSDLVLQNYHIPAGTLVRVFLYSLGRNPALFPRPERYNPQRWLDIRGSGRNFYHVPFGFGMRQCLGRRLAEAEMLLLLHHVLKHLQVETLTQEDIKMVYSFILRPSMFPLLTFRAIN
# Experimental: Single doses of (R)-compound 1 reduced plasma and urine aldosterone levels by approximately 85% to 90% in a dose-dependent manner, consistently reaching a maximum effect at a dose of 10 mg (R)-compound 1 under the different conditions tested (Cortrosyn® challenge, standing, normal salt diet, and low salt diet conditions). No change in plasma cortisol levels was apparent across the full dose range tested (0 to 360 mg (R)-compound 1).
# A maximum effect on aldosterone reduction was consistently achieved at a dose of 10 mg under the different conditions tested in healthy subjects (Cortrosyn® challenge, standing, normal salt diet, and low salt diet conditions). No change in plasma cortisol levels after the Cortrosyn challenge was apparent across the full dose range tested (0 to 360 mg of (R)-compound 1).
# [1] = MAD study: urine pharmacokinetics; assay type: in vivo, human; set-up: CL renal: unit not given here; conditions: for Ae, D 1 (amount excreted in urine, Day 1) / Ae, D 10 (amount excreted in urine, Day 10) / Fe, D 1 (fraction of dose excreted renally, Day 1) / Fe, D 10 (fraction of dose excreted renally, Day 10) / CL renal: mean; for CL renal: human, urine, oral
# From the text: For each subject, the study consisted of: • A screening period of up to 28 days; • A 5-day inpatient run-in period during which subjects adhered to a controlled, standardized diet and underwent baseline PD assessments; • A 15-day inpatient treatment period, during which subjects received (R)-compound 1 or placebo once daily for 10 days while adhering to a controlled, standardized diet, followed by PK and PD sampling over an additional 5 days; and • A follow-up visit 3 days (1 day) after discharge from the clinical unit. • A cortisol stimulation test (Cohorts 1 and 2 only) and standing aldosterone assessment (all cohorts) were performed on Days 1 and 10. Serial blood samples for PK and PD were obtained prior to and at specified time points over 24 hours after dosing on Day 1 as well as prior to and at specified time points over 120 hours after dosing on Day 10. In addition, blood samples for PK were collected prior to dosing on Days 8 and 9. Urine for PK and PD measurements was collected over 24 hours starting just prior to dosing on Day 1 as well as over 120 hours starting just prior to dosing on Day 10.
# [2] = SAD study Part 1: safety and tolerability (adverse events, laboratory values); assay type: in vivo; conditions: single oral dose, highest dose tested
# Experimental: There were no deaths, serious adverse events (SAEs), or dose-limiting events and the maximum tolerated dose observed was at the highest dose tested (360 mg). Overall, the most frequently reported AEs following administration of a single dose of (R)-compound 1 were headache, nasopharyngitis, diarrhea, asthenia, dizziness, and nausea.
# Urine sodium and the sodium to potassium ratio both increased, with the sodium loss in urine greater than the potassium retention. No change in urine creatinine was apparent.
# AEs were reported for few subjects and the incidence was not dose dependent (Table 14). No severe AEs, SAEs, withdrawals due to AEs, or deaths were noted. Overall, the most frequently reported AEs across dose levels were headache, nasopharyngitis, diarrhea, and nausea; however, the only events reported by >1 subject at any dose level were toothache (2 subjects [12.5%] with placebo), nasopharyngitis (2 subjects [12.5%] with placebo), and headache (2 subjects [33.3%] with 180 mg). The majority of AEs were considered not related to study drug. Two events of moderate gastroenteritis were reported (with 180 mg and placebo) and all other AEs were mild in intensity.
# Isolated markedly abnormal safety laboratory values were reported but no dose-dependent pattern was apparent. No AEs related to markedly abnormal safety laboratory values were reported. […]
# [3] = MAD study: predose plasma adrenocorticotropic hormone (ACTH); assay type: in vivo, human
# From the text: Table 10 presents mean predose plasma ACTH concentrations over time and change and percent change from Day 1 to Day 10 predose concentrations by treatment group for the PD Population.
smiles,measurement,setting,value
"CCC(=O)N[C@@H]1CCCc2c(-c3ccc4c(c3)CCC(=O)N4C)cncc21 [(R)-Compound 1, (R)—N-(4-(1-methyl-2-oxo-1,2,3,4-tetrahydroquinolin-6-yl)-5,6,7,8-tetrahydroisoquinolin-8-yl)propionamide]",plasma cortisol levels,"CYP11B1; full dose range tested (0 to 360 mg), Cortrosyn challenge",No change
same,doses at which 11-DOC increased,CYP11B1; single doses,≥ 90 mg
same,11-deoxycortisol,CYP11B1; single doses up to 360 mg,increases in 11-deoxycortisol (at doses of 180 mg and 360 mg)
same,"Ae, D 1 (amount excreted in urine, Day 1)","[1]; 0.5 mg QD, normal salt diet",39952.889 ng
same,"Ae, D 10 (amount excreted in urine, Day 10)","[1]; 0.5 mg QD, normal salt diet",168181.917 ng
same,"Fe, D 1 (fraction of dose excreted renally, Day 1)","[1]; 0.5 mg QD, normal salt diet",7.991%
same,"Fe, D 10 (fraction of dose excreted renally, Day 10)","[1]; 0.5 mg QD, normal salt diet",33.636%
same,"Ae, D 1 (amount excreted in urine, Day 1)","[1]; 1.5 mg QD, normal salt diet",115762.122 ng
same,"Ae, D 10 (amount excreted in urine, Day 10)","[1]; 1.5 mg QD, normal salt diet",459968.526 ng
same,"Fe, D 1 (fraction of dose excreted renally, Day 1)","[1]; 1.5 mg QD, normal salt diet",7.717%
same,"Fe, D 10 (fraction of dose excreted renally, Day 10)","[1]; 1.5 mg QD, normal salt diet",30.665%
same,"Ae, D 1 (amount excreted in urine, Day 1)","[1]; 2.5 mg QD, low salt diet",1687233.672 ng
same,"Ae, D 10 (amount excreted in urine, Day 10)","[1]; 2.5 mg QD, low salt diet",766791.190 ng
same,"Fe, D 1 (fraction of dose excreted renally, Day 1)","[1]; 2.5 mg QD, low salt diet",6.749%
same,"Fe, D 10 (fraction of dose excreted renally, Day 10)","[1]; 2.5 mg QD, low salt diet",30.672%
same,"Ae, D 1 (amount excreted in urine, Day 1)","[1]; 2.5 mg QD, normal salt diet",270541.533 ng
same,"Ae, D 10 (amount excreted in urine, Day 10)","[1]; 2.5 mg QD, normal salt diet",826482.355 ng
same,"Fe, D 1 (fraction of dose excreted renally, Day 1)","[1]; 2.5 mg QD, normal salt diet",10.822%
same,"Fe, D 10 (fraction of dose excreted renally, Day 10)","[1]; 2.5 mg QD, normal salt diet",33.059%
same,"Ae, D 1 (amount excreted in urine, Day 1)","[1]; 5.0 mg QD, low salt diet",317339.306 ng
same,"Ae, D 10 (amount excreted in urine, Day 10)","[1]; 5.0 mg QD, low salt diet",1677304.469 ng
same,"Fe, D 1 (fraction of dose excreted renally, Day 1)","[1]; 5.0 mg QD, low salt diet",6.347%
same,"Fe, D 10 (fraction of dose excreted renally, Day 10)","[1]; 5.0 mg QD, low salt diet",33.546%
same,"dose recovered unchanged in the urine, average",[1]; MAD study,approximately 7%
same,CL renal,"[1]; 0.5 mg, 0.5 mg QD, normal salt diet, read-out: CLR, D 1 (renal clearance, Day 1) (converted)",0.00888
same,CL renal,"[1]; 0.5 mg, 0.5 mg QD, normal salt diet, read-out: CLR, D 10 (renal clearance, Day 10) (converted)",0.00822
same,CL renal,"[1]; 1.5 mg, 1.5 mg QD, normal salt diet, read-out: CLR, D 1 (renal clearance, Day 1) (converted)",0.00958
same,CL renal,"[1]; 1.5 mg, 1.5 mg QD, normal salt diet, read-out: CLR, D 10 (renal clearance, Day 10) (converted)",0.00733
same,CL renal,"[1]; 2.5 mg, 2.5 mg QD, low salt diet, read-out: CLR, D 1 (renal clearance, Day 1) (converted)",0.00797
same,CL renal,"[1]; 2.5 mg, 2.5 mg QD, low salt diet, read-out: CLR, D 10 (renal clearance, Day 10) (converted)",0.0085
same,CL renal,"[1]; 2.5 mg, 2.5 mg QD, normal salt diet, read-out: CLR, D 1 (renal clearance, Day 1) (converted)",0.0136
same,CL renal,"[1]; 2.5 mg, 2.5 mg QD, normal salt diet, read-out: CLR, D 10 (renal clearance, Day 10) (converted)",0.0111
same,CL renal,"[1]; 5 mg, 5.0 mg QD, low salt diet, read-out: CLR, D 1 (renal clearance, Day 1) (converted)",0.00815
same,CL renal,"[1]; 5 mg, 5.0 mg QD, low salt diet, read-out: CLR, D 10 (renal clearance, Day 10) (converted)",0.00822
same,maximum tolerated dose,[2],360 mg
same,"Plasma ACTH, change from Day 1 to Day 10, predose, mean","[3]; 0.5 mg, normal salt diet",-0.15 pmol/L
same,"Plasma ACTH, percent change from Day 1 to Day 10, predose, mean","[3]; 0.5 mg, normal salt diet",−2.01%
same,"Plasma ACTH, change from Day 1 to Day 10, predose, mean","[3]; 1.5 mg, normal salt diet",-1.63 pmol/L
same,"Plasma ACTH, percent change from Day 1 to Day 10, predose, mean","[3]; 1.5 mg, normal salt diet",−24.00%
same,"Plasma ACTH, change from Day 1 to Day 10, predose, mean","[3]; 2.5 mg, low salt diet",2.11 pmol/L
same,"Plasma ACTH, percent change from Day 1 to Day 10, predose, mean","[3]; 2.5 mg, low salt diet",184.44%
same,"Plasma ACTH, change from Day 1 to Day 10, predose, mean","[3]; 2.5 mg, normal salt diet",-4.04 pmol/L
same,"Plasma ACTH, percent change from Day 1 to Day 10, predose, mean","[3]; 2.5 mg, normal salt diet",−35.69%
same,"Plasma ACTH, change from Day 1 to Day 10, predose, mean","[3]; 5.0 mg, low salt diet",1.57 pmol/L
same,"Plasma ACTH, percent change from Day 1 to Day 10, predose, mean","[3]; 5.0 mg, low salt diet",125.86%
same,"Predose plasma ACTH, mean","[3]; Day 1, predose, 0.5 mg, normal salt diet",3.91 pmol/L
same,"Predose plasma ACTH, mean","[3]; Day 1, predose, 1.5 mg, normal salt diet",6.30 pmol/L
same,"Predose plasma ACTH, mean","[3]; Day 1, predose, 2.5 mg, low salt diet",1.47 pmol/L
same,"Predose plasma ACTH, mean","[3]; Day 1, predose, 2.5 mg, normal salt diet",6.40 pmol/L
same,"Predose plasma ACTH, mean","[3]; Day 1, predose, 5.0 mg, low salt diet",1.96 pmol/L
same,"Predose plasma ACTH, mean","[3]; Day 10, predose, 0.5 mg, normal salt diet",3.76 pmol/L
same,"Predose plasma ACTH, mean","[3]; Day 10, predose, 1.5 mg, normal salt diet",4.67 pmol/L
same,"Predose plasma ACTH, mean","[3]; Day 10, predose, 2.5 mg, low salt diet",3.59 pmol/L
same,"Predose plasma ACTH, mean","[3]; Day 10, predose, 2.5 mg, normal salt diet",2.80 pmol/L
same,"Predose plasma ACTH, mean","[3]; Day 10, predose, 5.0 mg, low salt diet",3.52 pmol/L
same,ACTH increase compared to placebo,[3]; low salt diet conditions (Cohorts 1 and 2),somewhat more pronounced
same,ACTH,[3]; normal salt diet conditions,apparent dose-dependent decreases
